{
  "source": "patent US20100267798A1",
  "about": "“PHARMACEUTICAL FORMULATIONS AND USE THEREOF IN THE PREVENTION OF STROKE, DIABETES AND/OR CONGESTIVE HEART FAILURE” (AVENTS PHARMA DEUTSCHLAND GMBH, priority 1999, published 2010)",
  "test_system": "participants at high risk for cardiovascular events",
  "assay": "Large-scale clinical trial of ramipril versus placebo in reducing cardiovascular events",
  "format": "in vivo, human",
  "protocol": "A large-scale clinical trial was designed to examine the effect of the ACE inhibitor ramipril versus placebo in reducing cardiovascular events.\nThe study was conducted in 267 centres in 19 countries over a six year period and included 9,541 participants who are at high risk for cardiovascular events due to a history of previous ischaemic heart disease, stroke, peripheral arterial disease or individuals with diabetes.\nThe systolic blood pressure at inclusion of the patients was on average 138 mm Hg and thus the patients were normotensive at study start. After one month of therapy with either ramipril or placebo, the systolic blood pressure had decreased by 5.48 mm Hg and 1.59 mm Hg, respectively.\nThe primary endpoint of the study was myocardial infarction (MI), stroke and cardiovascular (CV) death (mortality).",
  "data": [
    {"smiles": "CCOC(=O)[C@H](CCc1ccccc1)N[C@@H](C)C(=O)N1[C@H](C(=O)O)C[C@@H]2CCC[C@@H]21", "note": "[ramipril]", "values": [
      {"measurement": "decrease in systolic blood pressure", "setting": "after one month of therapy, normotensive patients, on average 138 mm Hg at inclusion", "result": 5.48, "unit": "mm Hg"},
      {"measurement": "reduction in the need for revascularisation procedures and diabetic complications", "setting": "patients taking ramipril versus placebo", "result": "between a fourth and a fifth"},
      {"measurement": "reduction in the combined endpoint of cardiovascular deaths, heart attacks and strokes", "setting": "patients taking ramipril, study stopped early", "result": "very clear reduction"},
      {"measurement": "reduction in the number of patients who developed diabetes", "setting": "ramipril group versus placebo", "result": 36, "unit": "%"},
      {"measurement": "reduction in the number of patients who developed CHF", "setting": "ramipril group versus placebo, no signs or symptoms of CHF at study start", "result": 21, "unit": "%"},
      {"measurement": "reduction in the number of patients who developed a stroke", "setting": "ramipril group versus placebo, patients normotensive when recruited", "result": 32, "unit": "%"}
    ]}
  ]
}
